# Experimental data from PubChem BioAssay (NCI).
#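 1) Cells in 96-well plates. 2) Compound, 48 h, 5 concentrations. 3) Linear interpolation between surrounding doses. 4) Unreached endpoint = highest concentration. The concentration for 50% growth inhibition is given as GI50. TGI denotes the concentration required for complete inhibition of growth.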
# Tests used:
# Assay in all cases: DTP human tumour cell line panel, 48 h
# K-562 leukemia = tested on: K-562 leukemia
# PC-3 prostate = tested on: PC-3 prostate
# COLO 205 colon = tested on: COLO 205 colon
# RPMI-8226 leukemia = tested on: RPMI-8226 leukemia
# KM12 colon = tested on: KM12 colon
# DU-145 prostate = tested on: DU-145 prostate
# UACC-62 melanoma = tested on: UACC-62 melanoma
# HCC-2998 colon = tested on: HCC-2998 colon
# OVCAR-5 ovarian = tested on: OVCAR-5 ovarian
# SK-MEL-2 melanoma = tested on: SK-MEL-2 melanoma
# M14 melanoma = tested on: M14 melanoma
# TK-10 renal = tested on: TK-10 renal
# MDA-MB-435 = tested on: MDA-MB-435
# SK-MEL-28 melanoma = tested on: SK-MEL-28 melanoma
# CCRF-CEM leukemia = tested on: CCRF-CEM leukemia
# CAKI-1 renal = tested on: CAKI-1 renal
# 786-0 renal = tested on: 786-0 renal
# MCF7 breast = tested on: MCF7 breast
# OVCAR-3 ovarian = tested on: OVCAR-3 ovarian
# HS 578T breast = tested on: HS 578T breast
# OVCAR-8 ovarian = tested on: OVCAR-8 ovarian
# T-47D breast = tested on: T-47D breast
# HT29 colon = tested on: HT29 colon
# U251 CNS = tested on: U251 CNS
# MOLT-4 leukemia = tested on: MOLT-4 leukemia
# SW-620 colon = tested on: SW-620 colon
smiles,measurement,setting,value
O=C1c2ccccc2-c2c1c1c(O)cccc1n2-c1ccccc1,TGI,K-562 leukemia,> 100 µM
same,GI50,PC-3 prostate,> 100 µM
same,TGI,PC-3 prostate,> 100 µM
same,GI50,COLO 205 colon,> 100 µM
same,TGI,COLO 205 colon,> 100 µM
same,GI50,RPMI-8226 leukemia,0.0318 µM
same,TGI,RPMI-8226 leukemia,93.8 µM
same,GI50,KM12 colon,> 100 µM
same,TGI,KM12 colon,> 100 µM
same,GI50,DU-145 prostate,> 100 µM
same,TGI,DU-145 prostate,> 100 µM
same,GI50,UACC-62 melanoma,> 100 µM
same,TGI,UACC-62 melanoma,> 100 µM
same,GI50,HCC-2998 colon,> 100 µM
same,TGI,HCC-2998 colon,> 100 µM
same,GI50,OVCAR-5 ovarian,> 100 µM
same,TGI,OVCAR-5 ovarian,> 100 µM
same,GI50,SK-MEL-2 melanoma,> 100 µM
same,TGI,SK-MEL-2 melanoma,> 100 µM
same,GI50,M14 melanoma,29.3 µM
same,TGI,M14 melanoma,> 100 µM
same,GI50,TK-10 renal,> 100 µM
same,TGI,TK-10 renal,> 100 µM
same,GI50,MDA-MB-435,> 100 µM
same,TGI,MDA-MB-435,> 100 µM
same,GI50,SK-MEL-28 melanoma,18.5 µM
same,TGI,SK-MEL-28 melanoma,> 100 µM
same,GI50,CCRF-CEM leukemia,45.3 µM
same,TGI,CCRF-CEM leukemia,> 100 µM
same,GI50,CAKI-1 renal,> 100 µM
same,TGI,CAKI-1 renal,> 100 µM
same,GI50,786-0 renal,62.2 µM
same,TGI,786-0 renal,> 100 µM
same,GI50,MCF7 breast,> 100 µM
same,TGI,MCF7 breast,> 100 µM
same,GI50,OVCAR-3 ovarian,> 100 µM
same,TGI,OVCAR-3 ovarian,> 100 µM
same,GI50,HS 578T breast,> 100 µM
same,TGI,HS 578T breast,> 100 µM
same,GI50,OVCAR-8 ovarian,> 100 µM
same,TGI,OVCAR-8 ovarian,> 100 µM
same,GI50,T-47D breast,> 100 µM
same,TGI,T-47D breast,> 100 µM
same,GI50,HT29 colon,> 100 µM
same,TGI,HT29 colon,> 100 µM
same,GI50,U251 CNS,> 100 µM
same,TGI,U251 CNS,> 100 µM
same,GI50,MOLT-4 leukemia,> 100 µM
same,TGI,MOLT-4 leukemia,> 100 µM
same,GI50,SW-620 colon,> 100 µM
same,TGI,SW-620 colon,> 100 µM
